# Test results as given in PubChem BioAssay (NCI).
# Several values for one entry are separate records, joined by “and”; a condition that tells them apart may be missing. Equal values may be shown once.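 These data come from cells grown in 96-well plates and exposed to compound for 48 hours at five concentrations. GI50 is the concentration that inhibits growth by half. At the TGI there is no net growth.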
# How the values were obtained:
# Experiment in all cases: NCI anticancer screen, dose series, 48 h
# MDA-MB-435 = system: MDA-MB-435
# RXF 393 renal = system: RXF 393 renal
# IGROV1 ovarian = system: IGROV1 ovarian
# U251 CNS = system: U251 CNS
# PC-3 prostate = system: PC-3 prostate
# HS 578T breast = system: HS 578T breast
# NCI-H522 lung = system: NCI-H522 lung
# BT-549 breast = system: BT-549 breast
# LOX IMVI melanoma = system: LOX IMVI melanoma
# TK-10 renal = system: TK-10 renal
Structure (SMILES),GI50 (MDA-MB-435),TGI (MDA-MB-435),GI50 (RXF 393 renal),TGI (RXF 393 renal),GI50 (IGROV1 ovarian),TGI (IGROV1 ovarian),GI50 (U251 CNS),TGI (U251 CNS),GI50 (PC-3 prostate),TGI (PC-3 prostate),GI50 (HS 578T breast),TGI (HS 578T breast),GI50 (NCI-H522 lung),TGI (NCI-H522 lung),GI50 (BT-549 breast),TGI (BT-549 breast),GI50 (LOX IMVI melanoma),TGI (LOX IMVI melanoma),GI50 (TK-10 renal),TGI (TK-10 renal)
COc1ccc(NC(=O)/C=C(C)/C=C/C=C(C)\C=C\C2=C(C)CCCC2(C)C)cc1,48200 nM,> 100000 nM,25500 nM,76100 nM,54300 nM,> 100000 nM,> 100000 nM,> 100000 nM,72600 nM,> 100000 nM,9020 nM,96700 nM,28200 nM,> 100000 nM,> 100000 nM,> 100000 nM,32000 nM,> 100000 nM,> 100000 nM,> 100000 nM
O=C(c1ccccc1)C1C(C(=O)c2ccccc2)C(c2ccccc2)N(c2ccccc2)C1c1ccccc1 (stereo not given),,> 100000 nM,,> 100000 nM,,> 100000 nM,,> 100000 nM,,> 100000 nM,,> 100000 nM,,> 100000 nM,,> 100000 nM,,> 100000 nM,,> 100000 nM
N=C(N)SCCc1ccccn1,,> 100000 nM,,> 100000 nM,,> 100000 nM,,> 100000 nM,,> 100000 nM,,> 100000 nM,,> 100000 nM,,> 100000 nM,,> 100000 nM,,> 100000 nM
CCCCCc1c(C)[nH]c(/C=C2\N=C(c3ccc[nH]3)C=C2OCc2ccccc2)c1C,36.7 nM and 32.4 nM,296 nM and 134 nM,69.7 nM and 47.3 nM,768 nM and 374 nM,161 nM and 59.6 nM,1790 nM and 1400 nM,28.9 nM and 23.9 nM,195 nM and 122 nM,41.3 nM and 18.3 nM,2060 nM and 1170 nM,96.2 nM and 27.7 nM,697 nM and 238 nM,49.5 nM and 23.7 nM,719 nM and 262 nM,234 nM and 119 nM,1780 nM and 1180 nM,19.5 nM and 11.7 nM,45.8 nM and 37.7 nM,47.5 nM and 41.8 nM,1010 nM and 471 nM
ClCC#CCSc1ncnc2c1ncn2CC#CCCl,2270 nM,9040 nM,1010 nM,2290 nM,1030 nM,3340 nM,1320 nM,3040 nM,1410 nM,3240 nM,2410 nM,9800 nM,1140 nM,2730 nM,1610 nM,3020 nM,503 nM,2000 nM,2940 nM,13900 nM
CCOC(=O)Cc1csc(NC(=O)COC(=O)c2ccc(OC)cc2)n1,> 100000 nM,> 100000 nM,> 70800 nM,> 100000 nM,2990 nM,8770 nM,43300 nM,> 100000 nM,26500 nM,> 100000 nM,> 100000 nM,> 100000 nM,19600 nM,38500 nM,24700 nM,66300 nM,11100 nM,> 37500 nM,> 100000 nM,> 100000 nM
CC1(C)[C@@H](OC(N)=O)C=C[C@]2(C=O)[C@H]3CC[C@]4(C)[C@@H](c5ccc(=O)oc5)[C@@H](Cl)C[C@]4(O)C3=CC[C@@H]12,6 nM,14.1 nM,5.61 nM,15.7 nM,7.61 nM,24.4 nM,4.51 nM,8.54 nM,5.17 nM,14.8 nM,< 2.5 nM,14.6 nM,< 2.5 nM,5.73 nM,4.91 nM,10.6 nM,4.6 nM,8.85 nM,5.27 nM,15.7 nM
